Experimental data from ChEMBL document CHEMBL1134159, “Sulfonylated aminothiazoles as new small molecule inhibitors of protein phosphatases” (Bioorg Med Chem Lett, 2001).
Values belong to the compound of their own block, whether it stands above or below them.

Key:
[1] = biological target: T1, M-phase inducer phosphatase 2 (Homo sapiens, UniProt P30305); test: Inhibitory activity against human recombinant Cdc25B phosphatase enzyme
T1 sequence (P30305 whole entry): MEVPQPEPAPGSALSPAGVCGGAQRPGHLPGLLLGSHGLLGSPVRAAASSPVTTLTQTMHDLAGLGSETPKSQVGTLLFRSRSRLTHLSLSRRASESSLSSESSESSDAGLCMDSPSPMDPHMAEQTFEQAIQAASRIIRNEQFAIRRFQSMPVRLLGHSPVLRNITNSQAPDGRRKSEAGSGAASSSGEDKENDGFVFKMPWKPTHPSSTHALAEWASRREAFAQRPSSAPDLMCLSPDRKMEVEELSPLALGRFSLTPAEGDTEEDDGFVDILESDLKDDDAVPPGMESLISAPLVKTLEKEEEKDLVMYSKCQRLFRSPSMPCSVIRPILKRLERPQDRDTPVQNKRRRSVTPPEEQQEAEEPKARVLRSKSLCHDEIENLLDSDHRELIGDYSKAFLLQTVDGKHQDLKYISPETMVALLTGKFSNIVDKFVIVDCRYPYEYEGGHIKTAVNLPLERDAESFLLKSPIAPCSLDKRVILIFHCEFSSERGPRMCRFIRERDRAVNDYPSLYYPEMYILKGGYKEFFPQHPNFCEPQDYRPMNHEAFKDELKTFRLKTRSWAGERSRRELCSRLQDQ

[2] = biological target: T2, Dual specificity protein phosphatase 3 (Homo sapiens, UniProt P51452); test: In vitro inhibitory activity against human recombinant VHR phosphatase enzyme
[3] = biological target: T1, M-phase inducer phosphatase 2; test: In vitro inhibitory activity against human recombinant Cdc25B phosphatase enzyme
[4] = biological target: T3, Tyrosine-protein phosphatase non-receptor type 1 (Homo sapiens, UniProt P18031); test: In vitro inhibitory activity against human recombinant PTP1B phosphatase enzyme
T3 sequence (P18031 whole entry): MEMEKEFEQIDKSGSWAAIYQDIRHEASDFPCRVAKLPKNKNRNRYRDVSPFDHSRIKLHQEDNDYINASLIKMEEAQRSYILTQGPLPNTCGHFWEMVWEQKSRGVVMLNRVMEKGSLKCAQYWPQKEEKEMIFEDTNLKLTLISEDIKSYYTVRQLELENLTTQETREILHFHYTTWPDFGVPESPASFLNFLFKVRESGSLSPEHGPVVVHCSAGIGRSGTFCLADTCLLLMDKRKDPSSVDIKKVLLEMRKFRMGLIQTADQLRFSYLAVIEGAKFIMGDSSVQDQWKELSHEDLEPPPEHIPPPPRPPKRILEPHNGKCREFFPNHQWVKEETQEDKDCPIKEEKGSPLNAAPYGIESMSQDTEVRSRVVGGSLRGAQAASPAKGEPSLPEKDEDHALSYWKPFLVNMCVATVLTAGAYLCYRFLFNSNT

[5] = biological target: T2, Dual specificity protein phosphatase 3; test: In vitro inhibitory activity against human recombinant Dual specificity protein phosphatase 3 enzyme
[6] = biological target: T3, Tyrosine-protein phosphatase non-receptor type 1; test: In vitro inhibitory activity against human recombinant Protein-tyrosine phosphatase 1B
[7] = biological target: T1, M-phase inducer phosphatase 2; test: In vitro inhibitory activity against human recombinant Cell division cycle 25B

T2 sequence (P51452 whole entry): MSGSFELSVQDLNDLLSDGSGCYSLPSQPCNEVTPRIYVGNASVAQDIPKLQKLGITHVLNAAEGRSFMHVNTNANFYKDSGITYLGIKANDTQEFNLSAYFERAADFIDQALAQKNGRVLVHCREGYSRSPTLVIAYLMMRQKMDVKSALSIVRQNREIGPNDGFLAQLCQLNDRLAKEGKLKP

IC50 [2]: > 100 µM | IC50 [3]: > 100 µM | IC50 [4]: > 100 µM
SMILES: O=S(=O)(/C=C/c1ccco1)Nc1nc(-c2ccccc2)c(-c2ccccc2)s1

IC50 [2]: > 100 µM | IC50 [3]: 89 µM | IC50 [4]: > 100 µM
SMILES: O=S(=O)(/C=C/c1ccccc1Cl)Nc1nc(-c2ccc(Cl)cc2)cs1

IC50 [2]: > 100 µM | IC50 [3]: > 100 µM | IC50 [4]: > 100 µM
SMILES: CCCCCCCCCCc1sc(NS(=O)(=O)/C=C/c2ccccc2Cl)nc1-c1ccccc1

IC50 [2]: 34 µM | IC50 [3]: 70 µM | IC50 [4]: 90 µM
SMILES: O=S(=O)(/C=C/c1ccc(-c2ccccc2)cc1)Nc1nc(-c2ccccc2)c(-c2ccccc2)s1

IC50 [2]: > 100 µM | IC50 [3]: > 100 µM | IC50 [4]: > 100 µM
SMILES: CCc1sc(NS(=O)(=O)/C=C/c2ccc(S(C)(=O)=O)cc2)nc1-c1ccccc1

IC50 [2]: 24 µM | IC50 [3]: 33 µM | IC50 [4]: 49 µM
SMILES: CCCCCCCCC/C=C/S(=O)(=O)Nc1nc(-c2ccccc2)c(-c2ccccc2)s1

IC50 [2]: 40 µM | IC50 [3]: 26 µM | IC50 [4]: 38 µM
SMILES: O=S(=O)(/C=C/c1ccccc1Cl)Nc1nc(-c2ccccc2)c(-c2ccccc2)s1

IC50 [2]: 20 µM | IC50 [3]: 26 µM | IC50 [4]: 59 µM
SMILES: COC(=O)c1ccc(/C=C/S(=O)(=O)Nc2nc(-c3ccccc3)c(-c3ccccc3)s2)cc1

IC50 [2]: 25 µM | IC50 [3]: 34 µM | IC50 [4]: 36 µM
SMILES: O=S(=O)(/C=C/c1ccc(C(F)(F)F)cc1)Nc1nc(-c2ccccc2)c(-c2ccccc2)s1

IC50 [2]: 54 µM | IC50 [3]: 80 µM | IC50 [4]: > 100 µM
SMILES: CCCCc1ccc(/C=C/S(=O)(=O)Nc2nc(-c3ccc(-c4ccccc4)cc3)c(CCC)s2)cc1

IC50 [2]: 42 µM | IC50 [3]: 92 µM | IC50 [4]: > 100 µM
SMILES: CCCc1sc(NS(=O)(=O)/C=C/c2ccc(C(F)(F)F)cc2)nc1-c1ccc(-c2ccccc2)cc1

IC50 [2]: > 100 µM | IC50 [3]: > 100 µM | IC50 [4]: > 100 µM
SMILES: COc1ccc(/C=C/S(=O)(=O)Nc2nc(-c3ccccc3)c(-c3ccccc3)s2)cc1OC

IC50 [5]: 22 µM | IC50 [6]: 77 µM | IC50 [7]: 40 µM
SMILES: CCCc1sc(NS(=O)(=O)/C=C/c2ccc(F)c(F)c2)nc1-c1ccc(-c2ccccc2)cc1

IC50 [2]: 48 µM | IC50 [3]: 34 µM | IC50 [4]: 32 µM
SMILES: CCCc1sc(NS(=O)(=O)/C=C/c2ccc(C)cc2)nc1-c1ccc(Cl)cc1

More lines, now with the values behind:

SMILES: O=S(=O)(/C=C/c1ccc2ccccc2c1)Nc1nc(-c2ccccc2)c(-c2ccccc2)s1
Ki [1]: 36 µM | IC50 [2]: 30 µM | IC50 [3]: 22 µM | IC50 [4]: 45 µM

SMILES: CCCc1sc(NS(=O)(=O)/C=C/c2ccc(F)c(F)c2)nc1-c1ccc(C(F)(F)F)cc1
IC50 [2]: 31 µM | IC50 [3]: 25 µM | IC50 [4]: 29 µM

SMILES: CCCc1sc(NS(=O)(=O)/C=C/c2ccc3ccccc3c2)nc1-c1ccc(-c2ccccc2)cc1
IC50 [2]: 57 µM | IC50 [3]: > 100 µM | IC50 [4]: > 100 µM

SMILES: N#Cc1ccc(/C=C/S(=O)(=O)Nc2nc(-c3ccccc3)c(-c3ccccc3)s2)cc1
IC50 [2]: 32 µM | IC50 [3]: 76 µM | IC50 [4]: 58 µM

SMILES: O=S(=O)(/C=C/c1ccc(F)c(F)c1)Nc1nc(-c2ccccc2)c(-c2ccccc2)s1
IC50 [2]: 33 µM | IC50 [3]: 72 µM | IC50 [4]: 85 µM

SMILES: Cc1sc(NS(=O)(=O)/C=C/c2ccccc2Cl)nc1-c1ccc(Cl)cc1
IC50 [2]: > 100 µM | IC50 [3]: > 100 µM | IC50 [4]: > 100 µM

SMILES: CCCc1sc(NS(=O)(=O)/C=C/c2ccccc2Cl)nc1-c1ccc(C(F)(F)F)cc1
IC50 [2]: 25 µM | IC50 [3]: 14 µM | IC50 [4]: 10 µM

SMILES: CCCCc1ccc(/C=C/S(=O)(=O)Nc2nc(-c3ccccc3)c(-c3ccccc3)s2)cc1
IC50 [2]: 39 µM | IC50 [3]: 58 µM | IC50 [4]: > 100 µM

SMILES: CCc1sc(NS(=O)(=O)/C=C/c2ccc([N+](=O)[O-])cc2)nc1-c1ccccc1
IC50 [2]: 50 µM | IC50 [3]: 88 µM | IC50 [4]: 83 µM

SMILES: CCc1sc(NS(=O)(=O)/C=C/c2ccccc2Cl)nc1-c1ccccc1
IC50 [2]: > 100 µM | IC50 [3]: > 100 µM | IC50 [4]: > 100 µM

SMILES: CCCc1sc(NS(=O)(=O)/C=C/c2ccc(C)cc2)nc1-c1ccc(-c2ccccc2)cc1
IC50 [2]: 21 µM | IC50 [3]: 46 µM | IC50 [4]: 58 µM

SMILES: CCCc1sc(NS(=O)(=O)/C=C/c2ccc(C)cc2)nc1-c1ccc(C(F)(F)F)cc1
IC50 [2]: 31 µM | IC50 [3]: 20 µM | IC50 [4]: 20 µM

SMILES: Cc1sc(NS(=O)(=O)/C=C/c2ccc(F)c(F)c2)nc1-c1ccc(Cl)cc1
IC50 [2]: 43 µM | IC50 [3]: 33 µM | IC50 [4]: 51 µM

SMILES: O=[N+]([O-])c1ccc(/C=C/S(=O)(=O)Nc2nc(-c3ccccc3)c(-c3ccccc3)s2)cc1
IC50 [2]: 47 µM | IC50 [3]: 54 µM | IC50 [4]: 58 µM

SMILES: Cc1ccc(/C=C/S(=O)(=O)Nc2nc(-c3ccccc3)c(-c3ccccc3)s2)cc1
IC50 [2]: > 100 µM | IC50 [3]: > 100 µM | IC50 [4]: > 100 µM

SMILES: CCCc1sc(NS(=O)(=O)/C=C/c2ccc3ccccc3c2)nc1-c1ccc2ccccc2c1
IC50 [2]: 34 µM | IC50 [3]: 69 µM | IC50 [4]: 98 µM

SMILES: CCc1sc(NS(=O)(=O)/C=C/c2ccc3ccccc3c2)nc1-c1ccccc1
IC50 [2]: 32 µM | IC50 [3]: 89 µM | IC50 [4]: > 100 µM

SMILES: CCCc1sc(NS(=O)(=O)/C=C/c2ccc(-c3ccccc3)cc2)nc1-c1ccc(Cl)cc1
IC50 [2]: 27 µM | IC50 [3]: 38 µM | IC50 [4]: 35 µM

SMILES: CCCc1sc(NS(=O)(=O)/C=C/c2ccccc2Cl)nc1-c1ccc(-c2ccccc2)cc1
IC50 [2]: 82 µM | IC50 [3]: > 100 µM | IC50 [4]: > 100 µM

SMILES: CCCc1sc(NS(=O)(=O)/C=C/c2ccccc2Cl)nc1-c1ccc(Cl)cc1
Ki [1]: 4.6 µM | IC50 [2]: 32 µM | IC50 [3]: 26 µM | IC50 [4]: 24 µM

SMILES: CCCc1sc(NS(=O)(=O)/C=C/c2ccc(F)c(F)c2)nc1-c1ccc(Cl)cc1
IC50 [2]: 20 µM | IC50 [3]: 21 µM | IC50 [4]: 20 µM
